Activity calls are given as the source filed them. No cut-off for these calls is given here.

Data set [1] concerns Plasmodium yoelii yoelii. As to the kind of experiment: Antimalarial activity against Plasmodium yoelii 265 sporozoites in primary mice (Mus musculus) hepatocytes after 48 hrs. The format is functional, organism-based. To be noted: 265 BY, Hepatocyte.
Data set [2] is described as follows: Cytotoxicity against primary mouse hepatocytes after 48 hrs by neutral red assay. Type of data set: cell-based, Hepatocyte. The conditions noted are these: read-out: TC50.
The nature of data set [3]: Selectivity index, ratio of TC50 for primary mice (Mus musculus) hepatocytes to IC50 for Plasmodium yoelii yoelii 265 BY liver stage sporozoites. More on the design: species or system Hepatocyte.
For data set [4], the system named is Plasmodium yoelii yoelii. As to the kind of experiment: Antimalarial activity against Plasmodium yoelii 265 BY liver stage sporozoites in primary mice (Mus musculus) hepatocytes at 38.6 uM after 48 hrs. Type of data set: functional. To be noted: Hepatocyte.
Data set [5] relates to Plasmodium yoelii yoelii. As to the kind of experiment: Antimalarial activity against Plasmodium yoelii 265 BY liver stage sporozoites in primary mice (Mus musculus) hepatocytes at 7.1 uM after 48 hrs. Type of data set: functional, organism-based. The conditions noted are these: Hepatocyte.

In turn, `COc1cc(NC(C)CCCN)c2ncccc2c1` (stereo unspecified) [PRIMAQUINE] registered an IC50 in data set [1] of 0.64 µM. Further, the CC50 at 48 h in data set [2] was determined as 70.5 µM. Also, the Ratio in data set [3] is given as 110. In data set [4], testing at 38.6 µM gave an inhibition in vivo of 80%.

In the case of `COC1=C2[C@H]3NCC[C@]2(C[C@H](O)[C@@H]1O)c1c(ccc(OC)c1O)[C@@H]3O`, the IC50 in data set [1] was 16.1 µM. Also, in data set [2], the CC50 at 48 h turned out to be 388 µM. In data set [3], the Ratio amounted to 24.1.

In data set [1], `COC1=C2[C@@H]3Cc4ccc(OC)c(O)c4[C@]2(CCN3)C[C@H](O)[C@@H]1O` [SINOCOCULINE] registered an IC50 of 4.5 µM. Besides, the CC50 at 48 h in data set [2] turned out to be 62.2 µM. For the same compound, the Ratio in data set [3] stood at 13.8.

As for `COC1=C2[C@H]3NCC[C@]2(C[C@H](O)[C@@H]1O)c1c(ccc(OC)c1O)[C@@H]3O[C@@H]1O[C@H](CO)[C@@H](O)[C@H](O)[C@H]1O`, in data set [1], the IC50 was > 390 µM. The CC50 at 48 h in data set [2] is > 390 µM.

Compound `COC1=C2[C@H]3NCC[C@]2(C[C@H](O)[C@@H]1O)c1c(ccc(OC)c1O)[C@H]3O` [TAZOPSINE] registered an IC50 in data set [1] of 3.1 µM. Also, the CC50 at 48 h in data set [2] came to 43.7 µM. The Ratio in data set [3] was 14. In data set [5], the result was Active.
